HELM strings list units from the 5' end as sugar, base in round brackets, then linkage (d deoxyribose, r ribose, m 2'-O-methyl, p phosphodiester). Strings are as the collection lists them; they lack the last nucleoside at the 3' end of the tested compound. [moe] = 2'-O-(2-methoxyethyl) (MOE); [sp] = phosphorothioate linkage; [m5C] = 5-methylcytosine

The data set addresses C9ORF72. Nature of the data set: mouse, dose not given. Conditions: ASO.
With “RNA1{[moe]([m5C])[sp].[moe]([m5C])p.[moe](T)p.[moe](A)p.[moe](G)p.[moe]([m5C])[sp].d(G)[sp].d([m5C])[sp].d(G)[sp].d([m5C])[sp].d(G)[sp].d(A)[sp].d([m5C])[sp].d(T)[sp].[moe]([m5C])p.[moe]([m5C])[sp].[moe](T)}$$$$ (last 3' nucleoside missing)”, the 3 h FOB score worked out at 6 score 0-7.

Take “RNA1{[moe]([m5C])[sp].[moe](T)p.[moe](A)p.[moe](G)[sp].d([m5C])[sp].d(G)[sp].d([m5C])[sp].d(G)[sp].d([m5C])[sp].d(G)[sp].d(A)[sp].d([m5C])[sp].[moe](T)p.[moe]([m5C])p.[moe]([m5C])p.[moe](T)[sp].[moe](G)}$$$$ (last 3' nucleoside missing)”: the 3 h FOB score was determined as 3.25 score 0-7.

Turning to “RNA1{[moe](T)[sp].[moe]([m5C])p.[moe](T)p.d(G)[sp].d(T)[sp].d([m5C])[sp].d(T)[sp].d(T)[sp].d(T)[sp].d(G)[sp].d(G)[sp].d(A)[sp].d(G)[sp].[moe]([m5C])p.[moe]([m5C])p.[moe]([m5C])p.[moe](A)p.[moe](A)[sp].[moe](A)}$$$$ (last 3' nucleoside missing)”, the 3 h FOB score was determined as 6.75 score 0-7.

“RNA1{[moe]([m5C])[sp].[moe](A)p.[moe](G)p.[moe](G)p.[moe]([m5C])p.[moe](T)p.d(G)[sp].d([m5C])[sp].d(G)[sp].d(G)[sp].d(T)[sp].d(T)[sp].d(G)[sp].d(T)[sp].d(T)[sp].[moe](T)p.[moe]([m5C])[sp].[moe]([m5C])}$$$$ (last 3' nucleoside missing)”: the 3 h FOB score was found to be 6 score 0-7.

With “RNA1{[moe](G)[sp].[moe]([m5C])p.[moe]([m5C])p.[moe]([m5C])[sp].d([m5C])[sp].d(T)[sp].d(A)[sp].d(G)[sp].d([m5C])[sp].d(G)[sp].d([m5C])[sp].d(G)[sp].[moe]([m5C])p.[moe](G)p.[moe](A)p.[moe]([m5C])[sp].[moe](T)}$$$$ (last 3' nucleoside missing)”, the 3 h FOB score turned out to be 1.5 score 0-7.

In turn, “RNA1{[moe](G)[sp].[moe](G)[sp].[moe](G)[sp].[moe](A)[sp].[moe]([m5C])[sp].d(A)[sp].d([m5C])[sp].d(T)[sp].d(A)[sp].d([m5C])[sp].d(A)[sp].d(A)[sp].d(G)[sp].d(G)[sp].d(T)[sp].[moe](A)[sp].[moe](G)[sp].[moe](T)[sp].[moe](A)}$$$$ (last 3' nucleoside missing)” came in with a 3 h FOB score of 5.67 score 0-7.

In turn, “RNA1{[moe]([m5C])[sp].[moe]([m5C])p.[moe]([m5C])p.[moe](T)[sp].d(A)[sp].d(G)[sp].d([m5C])[sp].d(G)[sp].d([m5C])[sp].d(G)[sp].d([m5C])[sp].d(G)[sp].[moe](A)p.[moe]([m5C])p.[moe](T)p.[moe]([m5C])[sp].[moe]([m5C])}$$$$ (last 3' nucleoside missing)” yielded a 3 h FOB score of 1 score 0-7.

With “RNA1{[moe]([m5C])[sp].[moe]([m5C])p.[moe](T)p.[moe](A)[sp].d(G)[sp].d([m5C])[sp].d(G)[sp].d([m5C])[sp].d(G)[sp].d([m5C])[sp].d(G)[sp].d(A)[sp].[moe]([m5C])p.[moe](T)p.[moe]([m5C])p.[moe]([m5C])[sp].[moe](T)}$$$$ (last 3' nucleoside missing)”, the 3 h FOB score amounted to 3 score 0-7.

The substance “RNA1{[moe]([m5C])[sp].[moe](T)p.[moe](G)p.d(G)[sp].d(T)[sp].d(T)[sp].d(A)[sp].d(A)[sp].d(T)[sp].d([m5C])[sp].d(T)[sp].d(T)[sp].d(T)[sp].[moe](A)p.[moe](T)p.[moe]([m5C])p.[moe](A)p.[moe](G)[sp].[moe](G)}$$$$ (last 3' nucleoside missing)” registered a 3 h FOB score of 0 score 0-7.

In turn, “RNA1{[moe](G)[sp].[moe](G)p.[moe]([m5C])p.[moe]([m5C])[sp].d([m5C])[sp].d([m5C])[sp].d(T)[sp].d(A)[sp].d(G)[sp].d([m5C])[sp].d(G)[sp].d([m5C])[sp].[moe](G)p.[moe]([m5C])p.[moe](G)p.[moe](A)[sp].[moe]([m5C])}$$$$ (last 3' nucleoside missing)” displayed a 3 h FOB score of 2.5 score 0-7.

As for “RNA1{[moe](G)[sp].[moe]([m5C])p.[moe]([m5C])p.[moe](T)p.[moe](T)p.[moe](A)p.[moe]([m5C])p.d(T)[sp].d([m5C])[sp].d(T)[sp].d(A)[sp].d(G)[sp].d(G)[sp].d(A)[sp].d([m5C])[sp].d([m5C])[sp].d(A)[sp].[moe](A)[sp].[moe](G)}$$$$ (last 3' nucleoside missing)”, the 3 h FOB score stood at 3.25 score 0-7.

As for “RNA1{[moe](T)[sp].[moe]([m5C])p.[moe](T)p.[moe](G)[sp].d(T)[sp].d([m5C])[sp].d(T)[sp].d(T)[sp].d(T)[sp].d(G)[sp].d(G)[sp].d(A)[sp].[moe](G)p.[moe]([m5C])p.[moe]([m5C])p.[moe]([m5C])[sp].[moe](A)}$$$$ (last 3' nucleoside missing)”, the 3 h FOB score stood at 5.25 score 0-7.

With “RNA1{[moe]([m5C])[sp].[moe](A)p.[moe](G)p.[moe](G)p.[moe]([m5C])p.d(T)[sp].d(G)[sp].d([m5C])[sp].d(G)[sp].d(G)[sp].d(T)[sp].d(T)[sp].d(G)[sp].d(T)[sp].[moe](T)p.[moe](T)p.[moe]([m5C])[sp].[moe]([m5C])}$$$$ (last 3' nucleoside missing)”, the 3 h FOB score was 5 score 0-7.

“RNA1{[moe](T)[sp].[moe](G)p.[moe](G)p.d(T)[sp].d(T)[sp].d(A)[sp].d(A)[sp].d(T)[sp].d([m5C])[sp].d(T)[sp].d(T)[sp].d(T)[sp].d(A)[sp].[moe](T)p.[moe]([m5C])p.[moe](A)p.[moe](G)p.[moe](G)[sp].[moe](T)}$$$$ (last 3' nucleoside missing)”: the 3 h FOB score worked out at 0.25 score 0-7.

“RNA1{[moe]([m5C])[sp].[moe]([m5C])p.[moe](G)p.[moe](G)p.[moe]([m5C])p.[moe]([m5C])p.d([m5C])[sp].d([m5C])[sp].d(T)[sp].d(A)[sp].d(G)[sp].d([m5C])[sp].d(G)[sp].d([m5C])[sp].d(G)[sp].[moe]([m5C])p.[moe](G)[sp].[moe](A)}$$$$ (last 3' nucleoside missing)” came in with a 3 h FOB score of 5.75 score 0-7.

The substance “RNA1{[moe]([m5C])[sp].[moe](G)p.[moe](G)p.[moe]([m5C])p.[moe]([m5C])p.[moe]([m5C])p.d([m5C])[sp].d(T)[sp].d(A)[sp].d(G)[sp].d([m5C])[sp].d(G)[sp].d([m5C])[sp].d(G)[sp].d([m5C])[sp].d(G)[sp].[moe](A)p.[moe]([m5C])[sp].[moe](T)}$$$$ (last 3' nucleoside missing)” yielded a 3 h FOB score of 1.25 score 0-7.

Turning to “RNA1{[moe](G)[sp].[moe]([m5C])p.[moe]([m5C])[sp].d(T)[sp].d(T)[sp].d(A)[sp].d([m5C])[sp].d(T)[sp].d([m5C])[sp].d(T)[sp].d(A)[sp].[moe](G)p.[moe](G)p.[moe](A)p.[moe]([m5C])p.[moe]([m5C])[sp].[moe](A)}$$$$ (last 3' nucleoside missing)”, the 3 h FOB score was found to be 1.25 score 0-7.

As to “RNA1{[moe](G)[sp].[moe](G)[sp].[moe](T)[sp].[moe](A)[sp].[moe](A)[sp].d([m5C])[sp].d(T)[sp].d(T)[sp].d([m5C])[sp].d(A)[sp].d(A)[sp].d(A)[sp].d([m5C])[sp].d(T)[sp].d([m5C])[sp].[moe](T)[sp].[moe](T)[sp].[moe](G)[sp].[moe](G)}$$$$ (last 3' nucleoside missing)”, the 3 h FOB score worked out at 7 score 0-7.

The substance “RNA1{[moe](G)[sp].[moe]([m5C])p.[moe]([m5C])p.[moe]([m5C])p.d([m5C])[sp].d(T)[sp].d(A)[sp].d(G)[sp].d([m5C])[sp].d(G)[sp].d([m5C])[sp].d(G)[sp].d([m5C])[sp].d(G)[sp].[moe](A)p.[moe]([m5C])p.[moe](T)p.[moe]([m5C])[sp].[moe]([m5C])}$$$$ (last 3' nucleoside missing)” registered a 3 h FOB score of 1.25 score 0-7.

As for “RNA1{[moe]([m5C])[sp].[moe](T)p.[moe](G)p.[moe]([m5C])p.d(G)[sp].d(A)[sp].d(T)[sp].d([m5C])[sp].d([m5C])[sp].d([m5C])[sp].d([m5C])[sp].d(A)[sp].d(T)[sp].d(T)[sp].[moe]([m5C])p.[moe]([m5C])p.[moe](A)p.[moe](G)[sp].[moe](T)}$$$$ (last 3' nucleoside missing)”, the 3 h FOB score is 1.75 score 0-7.

Substance “RNA1{[moe](T)[sp].[moe](G)p.[moe](G)p.[moe](T)p.[moe](T)p.[moe](A)[sp].d(A)[sp].d(T)[sp].d([m5C])[sp].d(T)[sp].d(T)[sp].d(T)[sp].d(A)[sp].d(T)[sp].[moe]([m5C])p.[moe](A)[sp].[moe](G)}$$$$ (last 3' nucleoside missing)” yielded a 3 h FOB score of 6.25 score 0-7.

Consider “RNA1{[moe](G)[sp].[moe](G)p.[moe](T)p.[moe](T)p.[moe](A)p.[moe](A)p.d(T)[sp].d([m5C])[sp].d(T)[sp].d(T)[sp].d(T)[sp].d(A)[sp].d(T)[sp].d([m5C])[sp].d(A)[sp].d(G)[sp].[moe](G)p.[moe](T)[sp].[moe]([m5C])}$$$$ (last 3' nucleoside missing)”, for which the 3 h FOB score is 1.5 score 0-7.

The substance “RNA1{[moe](G)[sp].[moe](G)p.[moe]([m5C])p.[moe](T)p.[moe](G)p.d([m5C])[sp].d(G)[sp].d(G)[sp].d(T)[sp].d(T)[sp].d(G)[sp].d(T)[sp].d(T)[sp].d(T)[sp].[moe]([m5C])p.[moe]([m5C])p.[moe]([m5C])[sp].[moe](T)}$$$$ (last 3' nucleoside missing)” returned a 3 h FOB score of 5.5 score 0-7.

The substance “RNA1{[moe]([m5C])[sp].[moe](T)p.[moe](G)p.[moe]([m5C])p.[moe](G)p.[moe](A)p.[moe](T)p.d([m5C])[sp].d([m5C])[sp].d([m5C])[sp].d([m5C])[sp].d(A)[sp].d(T)[sp].d(T)[sp].d([m5C])[sp].d([m5C])[sp].d(A)[sp].[moe](G)[sp].[moe](T)}$$$$ (last 3' nucleoside missing)” gave a 3 h FOB score of 0.25 score 0-7.

Turning to “RNA1{[moe](G)[sp].[moe](T)p.[moe](T)p.[moe](A)p.[moe](A)p.[moe](T)[sp].d([m5C])[sp].d(T)[sp].d(T)[sp].d(T)[sp].d(A)[sp].d(T)[sp].d([m5C])[sp].d(A)[sp].[moe](G)p.[moe](G)[sp].[moe](T)}$$$$ (last 3' nucleoside missing)”, the 3 h FOB score worked out at 3 score 0-7.

Source of the values: the OligoGym collection.
